In patent US5130327A, “Indole derivatives” (Consejo Superior de Investigaciones Cientificas, priority 1989, dated 1992):

What was measured:
[1] = Secondary effects on the cardiovascular system; settings: in vivo
Description: (§1) The secondary effects were studied mainly on the cardiovascular system, and the effects on the arterial pressure, heart rate and rhythm, P-R interval and isolated organ (rabbit aortic rings and isolated atria), were evaluated both after acute and chronic treatments. In the same way, the "cheese effect" was studied by means of the tyramine potentiation.

[2] = test system: cerebral β-adrenergic receptors; test: Effects of chronic treatment on β receptors; assay type: in vivo; settings: chronic administration in the rat
Description: (§2) Effects of chronic treatment on α2 -, β- and 5-HT2 receptors. The test compounds, at a dose of 10 mg/kg/day i.p., were administered for 21 days to Wistar male rats (250±2.4 g). After treatment the animals were killed, brains were dissected and cortices were scraped from the dorsal surface of the […]. ^3 H UK 14304, ^3 H Dihydroalprenalol and ^3 H Ketanserin were used as ligands in the binding studies.

rat cerebral MAO A = test: Ex vivo inhibition of rat cerebral MAO A after single dosing; assay type: in vivo
Description: 2. "Ex vivo inhibition" of rat cerebral MAO A and B after single dosing.
This gives the degree of inhibition in vivo of both forms of the enzyme and variation of this inhibition with time after treatment with a single dose. […] Animals were sacrificed by decapitation 24 h. and 7 days after treatment and brains were removed and homogenized. Enzymatic activities determined in treated animals, were compared with the activities in control animals (100%).

Bovine Brain MAO B = target: T1, Bovine Brain MAO B (Bos taurus, UniProt P56560); test: In vitro inhibition of MAO from bovine brain mitochondria, tyramine as substrate (form B); assay type: biochemical; settings: pI50 = -log [I50], molar; bovine brain mitochondria, tyramine as substrate
T1 construct: in vitro activity of MAO from bovine brain mitochondria; from tissue; host or cells: bovine brain mitochondria
T1 sequence (P56560 1-520): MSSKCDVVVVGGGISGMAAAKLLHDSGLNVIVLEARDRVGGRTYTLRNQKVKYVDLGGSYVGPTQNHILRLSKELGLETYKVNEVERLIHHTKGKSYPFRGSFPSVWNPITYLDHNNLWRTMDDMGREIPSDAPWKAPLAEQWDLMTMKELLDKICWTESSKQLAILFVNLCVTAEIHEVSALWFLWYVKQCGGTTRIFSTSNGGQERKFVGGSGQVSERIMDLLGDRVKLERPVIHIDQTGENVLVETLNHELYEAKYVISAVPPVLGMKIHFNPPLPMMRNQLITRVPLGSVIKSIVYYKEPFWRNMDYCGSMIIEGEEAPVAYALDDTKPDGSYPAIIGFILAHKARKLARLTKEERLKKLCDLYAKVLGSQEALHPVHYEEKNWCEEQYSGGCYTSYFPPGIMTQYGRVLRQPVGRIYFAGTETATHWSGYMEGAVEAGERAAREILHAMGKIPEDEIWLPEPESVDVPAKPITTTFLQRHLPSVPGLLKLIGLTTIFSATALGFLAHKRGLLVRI
Source text: (§3) The following table illustrates the structure of particular compounds of the invention (1). It also gives specific pI50 values where pI50 =-log [I50 ] where [I50 ] is the molar concentration of test compound which inhibits 50% of the in vitro activity of MAO from bovine brain mitochondria using tyramine as substrate.

Bovine Brain MAO A = target: T2, Bovine Brain MAO A (Bos taurus, UniProt P21398); test: In vitro inhibition of MAO from bovine brain mitochondria, tyramine as substrate (form A); assay type: biochemical; settings: pI50 = -log [I50], molar
T2 construct: in vitro activity of MAO from bovine brain mitochondria; from tissue; host or cells: bovine brain mitochondria
T2 sequence (P21398 1-527): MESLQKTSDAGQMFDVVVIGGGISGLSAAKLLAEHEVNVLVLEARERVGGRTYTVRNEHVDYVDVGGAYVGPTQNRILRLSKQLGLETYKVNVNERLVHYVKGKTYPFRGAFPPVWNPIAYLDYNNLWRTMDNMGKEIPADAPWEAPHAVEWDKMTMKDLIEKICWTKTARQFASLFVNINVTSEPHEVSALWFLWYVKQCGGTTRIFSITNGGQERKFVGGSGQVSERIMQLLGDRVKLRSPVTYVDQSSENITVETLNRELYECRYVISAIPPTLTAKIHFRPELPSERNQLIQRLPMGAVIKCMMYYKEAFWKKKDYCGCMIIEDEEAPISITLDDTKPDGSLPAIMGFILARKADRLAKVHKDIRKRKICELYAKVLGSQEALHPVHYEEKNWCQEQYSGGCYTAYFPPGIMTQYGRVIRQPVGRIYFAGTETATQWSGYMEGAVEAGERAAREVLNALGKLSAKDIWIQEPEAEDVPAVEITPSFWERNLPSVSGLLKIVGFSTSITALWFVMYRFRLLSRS
Source text: as §3

[3] = Interaction with salbutamol-induced hypoactivity; assay type: in vivo
Source text: (§4) The action mechanism was studied in acute and chronic treatments on the interaction response with clonidine, salbutamol (Richard, J. Intern. J. Neuroscience, 9:17-19, 1979) and tetrabenazine (Pletscher, A.: An. N.Y. Aca. Sci. 80:1039-1045, 1959), and the response to the potentiation with L-dopa, L-tryptophan, tryptamine (Jalfre, M. et al., Arch. Int. Pharmacodyn, 159:194-221, 1982) and β-phenylethylamine (Ortmann, et al, Psychopharmacol. 84:22-27, 1984).

[4] = test system: reuptake of noradrenaline; test: Reuptake of noradrenaline in vitro, crude synaptosomal preparation; assay type: biochemical, rat
Description: Influence on the reuptake of monoamines "in vitro" was also studied. The effect of the compounds on the reuptake of 5-HT noradrenaline and dopamine was studied using Wistar male rats (350±2.5 g). They were kept under controlled light and temperature conditions and fed "ad libitum" until killed. The animals were killed by decapitation and brains were frozen and stored at -20° C. prior to analysis. Brains were dissected on an ice-filled petri dish. The cortices for 5-HT and noradrenaline assay and striatum (including caudate nucleus, putamen and globus pallidus) for dopamine assay were immediately weighed and homogenized. The standard incubation medium contained: 1.7 μM ^14 C-5-HT); 0.5μM ^3 H-noradrenaline or 1 μM ^3 H-dopamine with 0.1 ml of the crude synaptosomal preparation. All drugs used in the study were dissolved in the incubation medium in a concentration range 10^-4 to 10^-8 M and were preincubated with the crude synaptosomal preparation obtained from the treated brains, for 5 min. at 37° C. or 0° C. before the addition of the labelled substrate.

[5] = "Cheese effect" by tyramine potentiation; settings: in vivo
Description: as §1

[6] = Potentiation of L-tryptophan, L-dopa and tryptamine; settings: in vivo
Source text: as §4

5-HT receptors = test: Effects of chronic treatment on 5-HT2 receptors; assay type: in vivo; settings: chronic administration in the rat
Description: as §2

Potentiation of 5-HT = assay type: in vivo
[7] = Potentiation of β-phenylethylamine; assay type: in vivo
Source text: as §4

C#CCN(C)Cc1cc2cc(OC)ccc2n1C [(l), N-methyl-N-propargyl-2-(1-methyl-5-methoxy-indolyl)methylamine]
Cardiovascular effects [1]: hypotensive and negative chronotrope | Number or affinity of cerebral β-adrenergic receptors [2]: does not modify | Persistence of MAO A inhibitory effect (rat cerebral MAO A; dose increased (5 mg/kg)): observed even after 7 days | Onset of MAO A inhibitory effect (rat cerebral MAO A; single dose (1 mg/kg)): reached soon after the administration of a single dose | IC50 (Bovine Brain MAO B): 0.891 µM | IC50 (Bovine Brain MAO A): 0.00891 µM | Hypoactivity by salbutamol, acute treatment ([3]; acute treatment): not modifying it | Hypoactivity by salbutamol, chronic treatment ([3]; chronic treatment (14 days)): antagonized | Effect on the reuptake of noradrenaline [4]: no effect | "Cheese effect" [5]: some "cheese effect" | Potentiation of effects of L-tryptophan, L-dopa and tryptamine [6]: confirm the MAO inhibitory activity | Modifications on 5-HT receptors (5-HT receptors): not statistically significant | ED50 (Potentiation of 5-HT): 0.34 mg/kg | ED50 [7]: 27 mg/kg
